In PubChem BioAssay (NCI):
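Values below derive from 48-hour exposures of cells grown in 96-well plates, with endpoints linearly interpolated between the two concentrations bracketing the appropriate inhibition level. Abbreviation: GI50, concentration required for 50% inhibition of growth. At the TGI there is no net growth.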

Tests used:
Assay in all cases: inhibition of tumour cell growth, NCI panel, 48 h
[1] = test system: HCT-15 colon
[2] = test system: NCI-H460 lung
[3] = test system: SF-295 CNS
[4] = test system: EKVX NSCLC
[5] = test system: U251 CNS
[6] = test system: NCI-H226 lung
[7] = test system: SR leukemia
[8] = test system: MCF7 breast
[9] = test system: OVCAR-3 ovarian
[10] = test system: PC-3 prostate
[11] = test system: SNB-19 CNS
[12] = test system: COLO 205 colon
[13] = test system: RPMI-8226 leukemia
[14] = test system: SNB-75 CNS
[15] = test system: 786-0 renal
[16] = test system: CAKI-1 renal
[17] = test system: OVCAR-4 ovarian
[18] = test system: A549 NSCLC
[19] = test system: SK-MEL-28 melanoma
[20] = test system: HL-60(TB) leukemia
[21] = test system: MDA-MB-435
[22] = test system: RXF 393 renal
[23] = test system: SW-620 colon
[24] = test system: HS 578T breast
[25] = test system: DU-145 prostate
[26] = test system: SF-539 CNS
[27] = test system: UACC-257 melanoma
[28] = test system: MDA-MB-231 breast
[29] = test system: IGROV1 ovarian
[30] = test system: M14 melanoma
[31] = test system: KM12 colon
[32] = test system: MOLT-4 leukemia
[33] = test system: OVCAR-8 ovarian
[34] = test system: UACC-62 melanoma
[35] = test system: BT-549 breast
[36] = test system: TK-10 renal
[37] = test system: ACHN renal
[38] = test system: HT29 colon
[39] = test system: SF-268 CNS
[40] = test system: SK-MEL-5 melanoma
[41] = test system: SK-MEL-2 melanoma
[42] = test system: K-562 leukemia
[43] = test system: LOX IMVI melanoma
[44] = test system: SN12C renal
[45] = test system: NCI-H522 lung
[46] = test system: A498 renal
[47] = test system: OVCAR-5 ovarian
[48] = test system: HCT-116 colon
[49] = test system: UO-31 renal

Q: `CCCN1C(=O)/C(=C/c2cccc(O)c2)SC1=Nc1ccc(OC)cc1` was tested. Which GI50 [1] did it give?
A: 7.76 µM

Q: And the TGI [1]?
A: 16.2 µM

Q: And the GI50 [2]?
A: 13.5 µM

Q: What about the TGI [2] of the same molecule?
A: > 50 µM

Q: What about the GI50 [3] of the same molecule?
A: 11.5 µM

Q: And the TGI [3]?
A: 23.3 µM

Q: And the GI50 [4]?
A: 9.5 µM

Q: What about the TGI [4] of the same molecule?
A: 17.2 µM

Q: What about the GI50 [5] of the same molecule?
A: 7.87 µM

Q: And the TGI [5]?
A: 14.6 µM

Q: What about the GI50 [6] of the same molecule?
A: 13.3 µM

Q: And the TGI [6]?
A: 27.6 µM

Q: And the GI50 [7]?
A: 6.04 µM

Q: And the TGI [7]?
A: > 50 µM

Q: And the GI50 [8]?
A: 10.9 µM

Q: And the TGI [8]?
A: 29.2 µM

Q: And the GI50 [9]?
A: 10.2 µM

Q: What about the TGI [9] of the same molecule?
A: 21.1 µM

Q: And the GI50 [10]?
A: 6.59 µM

Q: What about the TGI [10] of the same molecule?
A: 13.2 µM

Q: What about the GI50 [11] of the same molecule?
A: 9.5 µM

Q: And the TGI [11]?
A: 19.3 µM

Q: What about the GI50 [12] of the same molecule?
A: 11.1 µM

Q: What about the TGI [12] of the same molecule?
A: 25.2 µM

Q: And the GI50 [13]?
A: 5.61 µM

Q: What about the TGI [13] of the same molecule?
A: 15.7 µM

Q: What about the GI50 [14] of the same molecule?
A: 11.7 µM

Q: What about the TGI [14] of the same molecule?
A: 22.8 µM

Q: And the GI50 [15]?
A: 8.63 µM

Q: And the TGI [15]?
A: 16.4 µM

Q: And the GI50 [16]?
A: 9.86 µM

Q: And the TGI [16]?
A: 20.5 µM

Q: What about the GI50 [17] of the same molecule?
A: 8.18 µM

Q: What about the TGI [17] of the same molecule?
A: 18.8 µM

Q: What about the GI50 [18] of the same molecule?
A: 9.11 µM

Q: And the TGI [18]?
A: 18.3 µM

Q: And the GI50 [19]?
A: 10.2 µM

Q: What about the TGI [19] of the same molecule?
A: 20.2 µM

Q: And the GI50 [20]?
A: 4.09 µM

Q: And the TGI [20]?
A: > 50 µM

Q: And the GI50 [21]?
A: 10.8 µM

Q: What about the TGI [21] of the same molecule?
A: 22 µM

Q: What about the GI50 [22] of the same molecule?
A: 9.3 µM

Q: And the TGI [22]?
A: 19.3 µM

Q: What about the GI50 [23] of the same molecule?
A: 9.78 µM

Q: And the TGI [23]?
A: 17.3 µM

Q: And the GI50 [24]?
A: 16.5 µM

Q: And the TGI [24]?
A: 34.1 µM

Q: What about the GI50 [25] of the same molecule?
A: 7.93 µM

Q: And the TGI [25]?
A: 15.3 µM

Q: What about the GI50 [26] of the same molecule?
A: 8.25 µM

Q: What about the TGI [26] of the same molecule?
A: 15.7 µM

Q: And the GI50 [27]?
A: 9.48 µM

Q: What about the TGI [27] of the same molecule?
A: 17.1 µM

Q: And the GI50 [28]?
A: 7.86 µM

Q: What about the TGI [28] of the same molecule?
A: 16 µM

Q: What about the GI50 [29] of the same molecule?
A: 29.5 µM

Q: What about the TGI [29] of the same molecule?
A: > 50 µM

Q: And the GI50 [30]?
A: 12.9 µM

Q: What about the TGI [30] of the same molecule?
A: 21.3 µM

Q: And the GI50 [31]?
A: 6.77 µM

Q: And the TGI [31]?
A: 16.5 µM

Q: And the GI50 [32]?
A: 4.7 µM

Q: What about the TGI [32] of the same molecule?
A: > 50 µM

Q: What about the GI50 [33] of the same molecule?
A: 10.7 µM

Q: What about the TGI [33] of the same molecule?
A: 22.2 µM

Q: And the GI50 [34]?
A: 10.3 µM

Q: What about the TGI [34] of the same molecule?
A: 18.1 µM

Q: What about the GI50 [35] of the same molecule?
A: 8.08 µM

Q: What about the TGI [35] of the same molecule?
A: 15.6 µM

Q: What about the GI50 [36] of the same molecule?
A: 9.62 µM

Q: What about the TGI [36] of the same molecule?
A: 19.5 µM

Q: And the GI50 [37]?
A: 8.08 µM

Q: And the TGI [37]?
A: 15.3 µM

Q: What about the GI50 [38] of the same molecule?
A: 8.98 µM

Q: And the TGI [38]?
A: 19.7 µM

Q: And the GI50 [39]?
A: 9.65 µM

Q: What about the TGI [39] of the same molecule?
A: 20.8 µM

Q: What about the GI50 [40] of the same molecule?
A: 7.28 µM

Q: What about the TGI [40] of the same molecule?
A: 15.1 µM

Q: What about the GI50 [41] of the same molecule?
A: 31.9 µM

Q: What about the TGI [41] of the same molecule?
A: > 50 µM

Q: What about the GI50 [42] of the same molecule?
A: 2.8 µM

Q: And the TGI [42]?
A: 22.3 µM

Q: And the GI50 [43]?
A: 7.9 µM

Q: What about the TGI [43] of the same molecule?
A: 15.2 µM

Q: And the GI50 [44]?
A: 9.17 µM

Q: And the TGI [44]?
A: 17.5 µM

Q: And the GI50 [45]?
A: 23.4 µM

Q: What about the TGI [45] of the same molecule?
A: > 50 µM

Q: And the GI50 [46]?
A: 8.81 µM

Q: And the TGI [46]?
A: 16.5 µM

Q: And the GI50 [47]?
A: 7.94 µM

Q: What about the TGI [47] of the same molecule?
A: 14.8 µM

Q: And the GI50 [48]?
A: 7.35 µM

Q: What about the TGI [48] of the same molecule?
A: 13.9 µM

Q: And the GI50 [49]?
A: 13.5 µM

Q: And the TGI [49]?
A: > 50 µM
